Test results taken from ChEMBL document CHEMBL1201862, “PubChem BioAssay data set” (2004).
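Cells were grown in 96-well plates and exposed to each compound for 48 hours at five concentrations; endpoints were interpolated linearly between bracketing concentrations, or set to the highest concentration if not reached. At the GI50, growth is halved.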 Activity calls are given as the source filed them. Rule as the data show it: active = GI50 up to about 1.1 µM and inactive = higher.

Assays:
Assay in all cases: growth of human tumour cells (NCI), 48 h
HOP-62 = system: HOP-62
CAKI-1 = system: CAKI-1
NCI-H23 = system: NCI-H23
IGROV-1 = system: IGROV-1
SF-268 = system: SF-268
M14 = system: M14
KM12 = system: KM12
SF-295 = system: SF-295
DU-145 = system: DU-145
UO-31 = system: UO-31
UACC-257 = system: UACC-257
HCT-15 = system: HCT-15
NCI-H460 = system: NCI-H460
EKVX = system: EKVX
HT-29 = system: HT-29
BT-549 = system: BT-549
MOLT-4 = system: MOLT-4
OVCAR-8 = system: OVCAR-8
HCT-116 = system: HCT-116
CCRF-CEM = system: CCRF-CEM
MDA-MB-231 = system: MDA-MB-231
SR = system: SR
UACC-62 = system: UACC-62
TK-10 = system: TK-10
MDA-N = system: MDA-N
SN12C = system: SN12C
SNB-75 = system: SNB-75
OVCAR-4 = system: OVCAR-4
SNB-19 = system: SNB-19
NCI/ADR-RES = system: NCI/ADR-RES
NCI-H522 = system: NCI-H522
SK-MEL-2 = system: SK-MEL-2
T47D = system: T47D
Malme-3M = system: Malme-3M
SK-MEL-5 = system: SK-MEL-5
LOX IMVI = system: LOX IMVI
SK-MEL-28 = system: SK-MEL-28
OVCAR-3 = system: OVCAR-3
PC-3 = system: PC-3
HL-60 = system: HL-60
COLO 205 = system: COLO 205
U-251 = system: U-251
A498 = system: A498
OVCAR-5 = system: OVCAR-5
A549 = system: A549
786-0 = system: 786-0
SW-620 = system: SW-620
HOP-92 = system: HOP-92
HCC 2998 = system: HCC 2998
NCI-H226 = system: NCI-H226
ACHN = system: ACHN
MCF7 = system: MCF7
Hs-578T = system: Hs-578T
MDA-MB-435 = system: MDA-MB-435
SF-539 = system: SF-539
RPMI-8226 = system: RPMI-8226
SK-OV-3 = system: SK-OV-3

Compound: C=CCOc1ccc(C(=N/NC(=O)c2ccccc2)/N=N/c2ccc(C)cc2)cc1OC
- GI50 (HOP-62): 37.8 µM (inactive)
- GI50 (CAKI-1): 40.8 µM (inactive)
- GI50 (NCI-H23): 20.2 µM (inactive)
- GI50 (IGROV-1): 18.7 µM (inactive)
- GI50 (SF-268): 52.7 µM (inactive)
- GI50 (M14): 22.7 µM (inactive)
- GI50 (KM12): 18.1 µM (inactive)
- GI50 (SF-295): 32 µM (inactive)
- GI50 (DU-145): 37.2 µM (inactive)
- GI50 (UO-31): 24.8 µM (inactive)
- GI50 (UACC-257): 19.6 µM (inactive)
- GI50 (HCT-15): 35.1 µM
- GI50 (NCI-H460): 18.4 µM (inactive)
- GI50 (EKVX): 30.9 µM (inactive)
- GI50 (HT-29): 20.3 µM (inactive)
- GI50 (BT-549): 18.3 µM (inactive)
- GI50 (MOLT-4): 26.5 µM (inactive)
- GI50 (OVCAR-8): 25.4 µM (inactive)
- GI50 (HCT-116): 19 µM (inactive)
- GI50 (CCRF-CEM): 9.14 µM (inactive)
- GI50 (MDA-MB-231): 24.4 µM (inactive)
- GI50 (SR): 6.17 µM (inactive)
- GI50 (UACC-62): 14.3 µM (inactive)
- GI50 (TK-10): 30 µM (inactive)
- GI50 (MDA-N): 20.7 µM (inactive)
- GI50 (SN12C): 31.7 µM (inactive)
- GI50 (SNB-75): 20.2 µM (inactive)
- GI50 (OVCAR-4): 37.9 µM (inactive)
- GI50 (SNB-19): 50 µM (inactive)
- GI50 (NCI/ADR-RES): 35.7 µM (inactive)
- GI50 (NCI-H522): 16.4 µM (inactive)
- GI50 (SK-MEL-2): 23.2 µM (inactive)
- GI50 (T47D): 14.2 µM (inactive)
- GI50 (Malme-3M): 21.1 µM (inactive)
- GI50 (SK-MEL-5): 17.9 µM (inactive)
- GI50 (LOX IMVI): 14.7 µM (inactive)
- GI50 (SK-MEL-28): 20 µM (inactive)
- GI50 (OVCAR-3): 25.9 µM (inactive)
- GI50 (PC-3): 25.7 µM (inactive)
- GI50 (HL-60): 4.83 µM (inactive)
- GI50 (COLO 205): 16.5 µM (inactive)
- GI50 (U-251): 10.4 µM (inactive)
- GI50 (A498): 25.6 µM (inactive)
- GI50 (OVCAR-5): 42.6 µM (inactive)
- GI50 (A549): 26.2 µM (inactive)
- GI50 (786-0): 33.9 µM (inactive)
- GI50 (SW-620): 31.4 µM (inactive)
- GI50 (HOP-92): 8.79 µM (inactive)
- GI50 (HCC 2998): 18.7 µM (inactive)
- GI50 (NCI-H226): 20.6 µM (inactive)
- GI50 (ACHN): 34.8 µM (inactive)
- GI50 (MCF7): 35.1 µM (inactive)
- GI50 (Hs-578T): 23.4 µM (inactive)
- GI50 (MDA-MB-435): 19.5 µM (inactive)

Compound: Cc1nc2ccccc2c(=O)n1/N=C/c1ccc(N(C)C)cc1
- GI50 (HOP-62): 34.2 µM (inactive)
- GI50 (CAKI-1): > 100 µM (inactive)
- GI50 (NCI-H23): 78 µM (inactive)
- GI50 (SF-539): > 100 µM (inactive)
- GI50 (RPMI-8226): 4.24 µM (inactive)
- GI50 (IGROV-1): > 100 µM (inactive)
- GI50 (SF-268): 33.7 µM (inactive)
- GI50 (M14): > 100 µM (inactive)
- GI50 (KM12): > 100 µM (inactive)
- GI50 (SF-295): 43.6 µM (inactive)
- GI50 (DU-145): > 100 µM (inactive)
- GI50 (UACC-257): > 100 µM (inactive)
- GI50 (HCT-15): > 100 µM
- GI50 (NCI-H460): > 100 µM (inactive)
- GI50 (EKVX): > 100 µM (inactive)
- GI50 (HT-29): > 100 µM (inactive)
- GI50 (BT-549): 46 µM (inactive)
- GI50 (MOLT-4): > 100 µM (inactive)
- GI50 (OVCAR-8): 53.5 µM (inactive)
- GI50 (HCT-116): > 100 µM (inactive)
- GI50 (CCRF-CEM): > 100 µM (inactive)
- GI50 (MDA-MB-231): 32.9 µM (inactive)
- GI50 (SR): > 100 µM (inactive)
- GI50 (UACC-62): 71.8 µM (inactive)
- GI50 (TK-10): > 100 µM (inactive)
- GI50 (MDA-N): > 100 µM (inactive)
- GI50 (SN12C): > 100 µM (inactive)
- GI50 (SNB-75): 15.4 µM (inactive)
- GI50 (OVCAR-4): > 100 µM (inactive)
- GI50 (SNB-19): 24.8 µM (inactive)
- GI50 (NCI/ADR-RES): 86.9 µM (inactive)
- GI50 (NCI-H522): 15.6 µM (inactive)
- GI50 (SK-MEL-2): > 100 µM (inactive)
- GI50 (T47D): > 100 µM (inactive)
- GI50 (Malme-3M): > 100 µM (inactive)
- GI50 (SK-MEL-5): > 100 µM (inactive)
- GI50 (LOX IMVI): > 100 µM (inactive)
- GI50 (SK-MEL-28): > 100 µM (inactive)
- GI50 (OVCAR-3): > 100 µM (inactive)
- GI50 (PC-3): > 100 µM (inactive)
- GI50 (HL-60): > 100 µM (inactive)
- GI50 (SK-OV-3): 83.6 µM (inactive)
- GI50 (COLO 205): > 100 µM (inactive)
- GI50 (U-251): 45 µM (inactive)
- GI50 (A498): > 100 µM (inactive)
- GI50 (OVCAR-5): > 100 µM (inactive)
- GI50 (A549): > 100 µM (inactive)
- GI50 (786-0): 71.4 µM (inactive)
- GI50 (SW-620): > 100 µM (inactive)
- GI50 (HOP-92): 48.5 µM (inactive)
- GI50 (HCC 2998): > 100 µM (inactive)
- GI50 (NCI-H226): > 100 µM (inactive)
- GI50 (ACHN): > 100 µM (inactive)
- GI50 (MCF7): > 100 µM (inactive)
- GI50 (Hs-578T): 15.3 µM (inactive)
- GI50 (MDA-MB-435): > 100 µM (inactive)
